Reference: PMC7333355, “Functional and Regulatory Characterization of Three AMTs in Maize Roots” (Frontiers in Plant Science, 2020)

Experiments:
AtAMT1;3 = molecular target: T1, AtAMT1;3 (Arabidopsis thaliana, UniProt Q9SQH9); conditions: 1 mM ammonium chloride
T1 construct: gene AMT1-3

ZmAMT1.3 = molecular target: T2, ZmAMT1.3 (Zea mays, UniProt B4F978); assay: two-electrode voltage clamp, Xenopus oocytes, inhibition of ammonium-induced current; type: cell-based; conditions: read-out: % inhibition at 10 mM
T2 construct: full-length cDNA from maize root RNA in pCI vector, expressed in Xenopus laevis oocytes; no tag stated
T2 sequence (B4F978 1-488): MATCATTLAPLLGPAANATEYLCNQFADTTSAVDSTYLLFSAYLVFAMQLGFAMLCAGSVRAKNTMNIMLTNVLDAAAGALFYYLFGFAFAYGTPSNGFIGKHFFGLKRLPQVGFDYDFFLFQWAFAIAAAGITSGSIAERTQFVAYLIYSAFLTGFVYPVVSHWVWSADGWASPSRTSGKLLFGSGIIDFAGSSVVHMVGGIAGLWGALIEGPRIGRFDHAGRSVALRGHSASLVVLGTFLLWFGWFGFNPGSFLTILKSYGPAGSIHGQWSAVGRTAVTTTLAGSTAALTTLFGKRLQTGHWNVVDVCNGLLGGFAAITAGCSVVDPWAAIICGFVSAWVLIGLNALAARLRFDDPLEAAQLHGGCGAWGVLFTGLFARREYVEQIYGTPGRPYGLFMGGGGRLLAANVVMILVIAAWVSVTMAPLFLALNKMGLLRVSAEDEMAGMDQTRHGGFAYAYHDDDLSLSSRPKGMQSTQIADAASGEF

ZmAMT1.1a = molecular target: T3, ZmAMT1.1a (Zea mays, UniProt B4FRK2); assay: as above; type: cell-based; conditions: read-out: % inhibition at 10 mM
T3 construct: full-length cDNA from maize root RNA in pCI vector, expressed in Xenopus laevis oocytes; no tag stated
T3 sequence (B4FRK2 1-498): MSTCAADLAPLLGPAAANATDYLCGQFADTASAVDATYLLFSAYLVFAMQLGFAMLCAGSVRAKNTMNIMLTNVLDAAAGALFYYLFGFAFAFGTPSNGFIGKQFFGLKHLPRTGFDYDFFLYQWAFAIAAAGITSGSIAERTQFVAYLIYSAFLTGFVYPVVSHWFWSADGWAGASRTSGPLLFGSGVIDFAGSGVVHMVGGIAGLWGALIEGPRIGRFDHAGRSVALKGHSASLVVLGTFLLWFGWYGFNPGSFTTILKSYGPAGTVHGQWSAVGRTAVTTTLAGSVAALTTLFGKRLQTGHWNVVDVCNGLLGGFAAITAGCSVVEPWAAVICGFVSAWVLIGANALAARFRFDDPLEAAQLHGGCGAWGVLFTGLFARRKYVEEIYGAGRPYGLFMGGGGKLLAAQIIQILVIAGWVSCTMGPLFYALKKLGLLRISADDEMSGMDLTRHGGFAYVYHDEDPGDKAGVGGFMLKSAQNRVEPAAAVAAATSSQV

ZmAMT1.1b = molecular target: T4, ZmAMT1.1b (Zea mays, UniProt B4FV06); assay: as above; type: cell-based; conditions: read-out: % inhibition at 10 mM
T4 construct: full-length cDNA from maize root RNA in pCI vector, expressed in Xenopus laevis oocytes; no tag stated
T4 sequence (B4FV06 1-489): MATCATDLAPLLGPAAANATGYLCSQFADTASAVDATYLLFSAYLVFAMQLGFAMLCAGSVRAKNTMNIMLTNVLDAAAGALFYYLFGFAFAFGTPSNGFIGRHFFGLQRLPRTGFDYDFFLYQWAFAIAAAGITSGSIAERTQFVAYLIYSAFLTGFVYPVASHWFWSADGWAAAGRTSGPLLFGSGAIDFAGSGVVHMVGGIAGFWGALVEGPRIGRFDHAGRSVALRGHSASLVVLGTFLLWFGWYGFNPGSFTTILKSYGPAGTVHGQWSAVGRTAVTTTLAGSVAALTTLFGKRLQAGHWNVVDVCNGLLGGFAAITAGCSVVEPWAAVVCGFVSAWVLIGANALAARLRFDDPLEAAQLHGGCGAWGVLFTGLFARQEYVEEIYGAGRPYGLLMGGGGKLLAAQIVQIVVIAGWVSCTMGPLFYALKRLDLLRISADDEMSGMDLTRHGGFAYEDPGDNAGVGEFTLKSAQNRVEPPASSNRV

[1] = substrate: N; assay: cells, lysate or membranes; conditions: added as chloride
[2] = substrate: CN; assay: two-electrode voltage clamp, Xenopus oocytes, Michaelis-Menten fit of induced currents; type: cell-based, Zea mays; conditions: pH 7.4, -140 mV, added as chloride

T1 sequence (Q9SQH9 whole entry): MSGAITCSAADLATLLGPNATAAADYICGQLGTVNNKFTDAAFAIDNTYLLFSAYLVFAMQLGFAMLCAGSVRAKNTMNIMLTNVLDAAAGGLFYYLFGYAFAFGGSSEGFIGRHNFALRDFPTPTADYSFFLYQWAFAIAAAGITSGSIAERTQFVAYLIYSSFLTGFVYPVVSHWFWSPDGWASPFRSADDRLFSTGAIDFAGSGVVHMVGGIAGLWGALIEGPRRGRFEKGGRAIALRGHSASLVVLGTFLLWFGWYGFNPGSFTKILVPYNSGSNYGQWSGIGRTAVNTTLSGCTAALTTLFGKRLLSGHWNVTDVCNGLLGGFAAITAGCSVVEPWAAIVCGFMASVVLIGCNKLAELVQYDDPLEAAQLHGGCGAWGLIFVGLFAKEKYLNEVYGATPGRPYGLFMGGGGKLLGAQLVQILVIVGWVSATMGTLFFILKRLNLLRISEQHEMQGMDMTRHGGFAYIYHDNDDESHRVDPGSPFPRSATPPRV

For `N` [ammonium], the “two-electrode voltage clamp, Xenopus oocytes, induced current” value (AtAMT1;3) was “Significant ammonium-induced currents were detected in AtAMT1;3-expressing oocytes”.

`NC(=O)CC[C@H](N)C(=O)O` [glutamine] showed an inhibition at 10000 µM (ZmAMT1.3) of 55.4%, an inhibition at 10000 µM (ZmAMT1.1a) of 69.9% and an inhibition at 10000 µM (ZmAMT1.1b) of 67.5%.

B1: ZmAMT1.1a (Zea mays) (protein)
chain: T3 sequence (B4FRK2 1-498)
notes: full-length cDNA from maize root RNA in pCI vector, expressed in Xenopus laevis oocytes; no tag stated
B1 showed a Km ([1]; pH 7.4, -140 mV) of 9.9 ± 1.9 µM and a Km [2] of 1900 ± 400 µM.

B2: ZmAMT1.3 (Zea mays) (protein)
chain: T2 sequence (B4F978 1-488)
In the case of B2, the Km ([1]; pH 7.4, -140 mV (potential inferred from Figure 3D range)) is reported as 18.6 ± 2.8 µM.

B3: ZmAMT1.1b (Zea mays) (protein)
chain: T4 sequence (B4FV06 1-489)
In the case of B3, the Km ([1]; pH 7.4, -140 mV (potential inferred from Figure 2D range)) is reported as 15.6 µM.
